According to patent US10597388B2, “Pyridazinone herbicides” (FMC CORPORATION, priority 2014, dated 2020):

Tests used:
Experiment in all cases: Test D controlled growth environment herbicide test, pre- and postemergence
Assay type in all cases: in vivo
[1] = system: blackgrass (Alopecurus myosuroides)
From the text: (§1) Seeds of plant species selected from bluegrass (annual bluegrass, Poa annua), blackgrass (Alopecurus myosuroides), Canada thistle (Cirsium arvense), canarygrass (Phalaris minor), chickweed (common chickweed, Stellaria media), geranium, cutleaf (cutleaf geranium, Geranium dissectum), galium (catchweed bedstraw, Galium aparine), bromegrass, downy (downy bromegrass, Bromus tectorum), field poppy (Papaver rhoeas), field violet (Viola arvensis), foxtail, green (green foxtail, Setaria viridis), deadnettle (henbit deadnettle, Lamium amplexicaule), ryegrass, Italian (Italian ryegrass, Lolium multiflorum), kochia (Kochia scoparia), lambsquarters (Chenopodium album), oilseed rape (Brassica napus), pigweed (Amaranthus retroflexus), chamomile (scentless chamomile, Matricaria inodora), Russian thistle (Salsola kali), speedwell (bird's-eye speedwell, Veronica persica), barley, spring (spring barley, Hordeum vulgare), wheat, spring (spring wheat, Triticum aestivum), buckwheat, wild (wild buckwheat, Polygonum convolvulus), mustard, wild (wild mustard, Sinapis arvensis), oat, wild (wild oat, Avena fatua), radish, wild (wild radish, Raphanus raphanistrum), windgrass (Apera spica-venti), barley, winter (winter barley, Hordeum vulgare), and wheat, winter (winter wheat, Triticum aestivum) were planted into a silt loam soil and treated preemergence with test chemicals formulated in a non-phytotoxic solvent mixture which included a surfactant.
(§2) At the same time, these species were planted in pots containing Redi-Earth® planting medium (Scotts Company, 14111 Scottslawn Road, Marysville, Ohio 43041) comprising spaghnum peat moss, vermiculite, wetting agent and starter nutrients and treated with postemergence applications of the test chemicals formulated in the same manner. Plants ranged in height from 2 to 18 cm (1- to 4-leaf stage). Treated plants and controls were maintained in a controlled growth environment for 14 to 21 d after which time all species were compared to controls and visually evaluated. Plant response ratings, summarized in Table D, are based on a scale of 0 to 100 where 0 is no effect and 100 is complete control. A dash (-) response means no test result.

[2] = system: deadnettle (henbit deadnettle, Lamium amplexicaule)
From the text: as §1, §2

[3] = system: field poppy (Papaver rhoeas)
From the text: as §1, §2

[4] = system: chamomile (scentless chamomile, Matricaria inodora)
From the text: as §1, §2

[5] = system: mustard, wild (wild mustard, Sinapis arvensis)
From the text: as §1, §2

[6] = system: radish, wild (wild radish, Raphanus raphanistrum)
From the text: as §1, §2

[7] = system: foxtail, green (green foxtail, Setaria viridis)
From the text: as §1, §2

[8] = system: lambsquarters (Chenopodium album)
From the text: as §1, §2

[9] = system: barley, winter (winter barley, Hordeum vulgare)
From the text: as §1, §2

[10] = system: windgrass (Apera spica-venti)
From the text: as §1, §2

[11] = Postemergence, 31 g ai/ha, scale 0 to 100 (0 no effect, 100 complete control)
[12] = Postemergence, 125 g ai/ha, visual rating on scale 0 (no effect) to 100 (complete control), 14 to 21 d
[13] = Postemergence, 250 g ai/ha, scale 0 to 100 (0 no effect, 100 complete control)
[14] = Preemergence, 62 g ai/ha, scale 0 to 100 (0 no effect, 100 complete control)
[15] = Preemergence, 125 g ai/ha, scale 0 to 100 (0 no effect, 100 complete control)
[16] = Preemergence, 250 g ai/ha, scale 0 to 100, 0 no effect, 100 complete control
[17] = postemergence, 62 g ai/ha, scale 0 to 100, 0 no effect, 100 complete control

In the case of `Cc1nn(C)c(=O)c(-c2c(C)sc3ccc(Br)cc23)c1O` [Compound 22], the “Blackgrass plant response rating” value [1, 11] is reported as 15, the “Plant response rating, Blackgrass” value [1, 12] is reported as 45 and the “Plant response rating, Blackgrass” value [1, 13] is reported as 70. For the same molecule, the “Plant response rating (scale of 0 to 100), Blackgrass” value ([1]; Preemergence, 31 g ai/ha) was 45, the “Plant response rating, Blackgrass” value [1, 14] was 45 and the “Plant response rating, Blackgrass” value [1, 15] was 55. The “Blackgrass plant response rating” value [1, 16] was 75, the “Plant response rating, Blackgrass” value [1, 17] was 20 and the “Deadnettle plant response rating” value [2, 11] was 10. For the same molecule, the “Plant response rating, Deadnettle” value [2, 12] was 45, the “Plant response rating, Deadnettle” value [2, 13] was 70 and the “Plant response rating (scale of 0 to 100), Deadnettle” value ([2]; Preemergence, 31 g ai/ha) was 0. For the same molecule, the “Plant response rating, Deadnettle” value [2, 14] was 0, the “Plant response rating, Deadnettle” value [2, 15] was 15 and the “Plant response rating, Deadnettle” value [2, 17] was 10. The “Field Poppy plant response rating” value [3, 11] was 75, the “Plant response rating, Field Poppy” value [3, 12] was 100 and the “Plant response rating, Field Poppy” value [3, 13] was 100. For the same molecule, the “Plant response rating (scale of 0 to 100), Field Poppy” value ([3]; Preemergence, 31 g ai/ha) was 0, the “Plant response rating, Field Poppy” value [3, 14] was 0 and the “Plant response rating, Field Poppy” value [3, 15] was 100. For the same molecule, the “Plant response rating, Field Poppy” value [3, 16] was 100, the “Plant response rating, Field Poppy” value [3, 17] was 85 and the “Chamomile plant response rating” value [4, 11] was 80. The “Plant response rating, Chamomile” value [4, 12] was 85, the “Plant response rating, Chamomile” value [4, 13] was 100 and the “Plant response rating (scale of 0 to 100), Chamomile” value ([4]; Preemergence, 31 g ai/ha) was 95. For the same molecule, the “Plant response rating, Chamomile” value [4, 14] was 100, the “Plant response rating, Chamomile” value [4, 15] was 100 and the “Plant response rating, Chamomile” value [4, 16] was 100. For the same molecule, the “Plant response rating, Chamomile” value [4, 17] was 80, the “Mustard, Wild plant response rating” value [5, 11] was 90 and the “Plant response rating, Mustard, Wild” value [5, 12] was 100. For the same molecule, the “Plant response rating, Mustard, Wild” value [5, 13] was 100, the “Plant response rating (scale of 0 to 100), Mustard, Wild” value ([5]; Preemergence, 31 g ai/ha) was 5 and the “Plant response rating, Mustard, Wild” value [5, 14] was 65. The “Plant response rating, Mustard, Wild” value [5, 15] was 85, the “Plant response rating, Mustard, Wild” value [5, 16] was 95 and the “Plant response rating, Mustard, Wild” value [5, 17] was 95. The “Radish, Wild plant response rating” value [6, 11] was 85, the “Plant response rating, Radish, Wild” value [6, 12] was 100 and the “Plant response rating, Radish, Wild” value [6, 13] was 85. For the same molecule, the “Plant response rating (scale of 0 to 100), Radish, Wild” value ([6]; Preemergence, 31 g ai/ha) was 0, the “Plant response rating, Radish, Wild” value [6, 14] was 25 and the “Plant response rating, Radish, Wild” value [6, 15] was 70. The “Plant response rating, Radish, Wild” value [6, 16] was 80, the “Plant response rating, Radish, Wild” value [6, 17] was 75 and the “Foxtail, Green plant response rating” value [7, 11] was 15. The “Plant response rating, Foxtail, Green” value [7, 12] was 70, the “Plant response rating, Foxtail, Green” value [7, 13] was 75 and the “Plant response rating (scale of 0 to 100), Foxtail, Green” value ([7]; Preemergence, 31 g ai/ha) was 0. The “Plant response rating, Foxtail, Green” value [7, 14] was 0, the “Plant response rating, Foxtail, Green” value [7, 15] was 0 and the “Plant response rating, Foxtail, Green” value [7, 16] was 20. For the same molecule, the “Plant response rating, Foxtail, Green” value [7, 17] was 45, the “Lambsquarters plant response rating” value [8, 11] was 80 and the “Plant response rating, Lambsquarters” value [8, 12] was 95. For the same molecule, the “Plant response rating, Lambsquarters” value [8, 13] was 98, the “Plant response rating (scale of 0 to 100), Lambsquarters” value ([8]; Preemergence, 31 g ai/ha) was 100 and the “Plant response rating, Lambsquarters” value [8, 14] was 100. The “Plant response rating, Lambsquarters” value [8, 15] was 100, the “Plant response rating, Lambsquarters” value [8, 16] was 100 and the “Plant response rating, Lambsquarters” value [8, 17] was 85. The “Plant response rating, Barley, Winter” value [9, 11] was 0, the “Plant response rating, Barley, Winter” value [9, 12] was 0 and the “Plant response rating, Barley, Winter” value [9, 13] was 5. For the same molecule, the “Plant response rating (scale of 0 to 100), Barley, Winter” value ([9]; Preemergence, 31 g ai/ha) was 0, the “Plant response rating, Barley, Winter” value [9, 14] was 0 and the “Plant response rating, Barley, Winter” value [9, 15] was 0. The “Barley, Winter plant response rating” value [9, 16] was 0, the “Plant response rating, Barley, Winter” value [9, 17] was 0 and the “Windgrass plant response rating” value [10, 11] was 15. For the same molecule, the “Plant response rating, Windgrass” value [10, 12] was 35, the “Plant response rating, Windgrass” value [10, 13] was 55 and the “Plant response rating (scale of 0 to 100), Windgrass” value ([10]; Preemergence, 31 g ai/ha) was 0. The “Plant response rating, Windgrass” value [10, 14] was 20, the “Plant response rating, Windgrass” value [10, 15] was 70 and the “Plant response rating, Windgrass” value [10, 16] was 80. The “Plant response rating, Windgrass” value [10, 17] was 20.
